Some test systems named below: SW-620 colon; HCT-116 colon; MALME-3M melanoma; UACC-257 melanoma; OVCAR-8 ovarian; HL-60(TB) leukemia; EKVX NSCLC; U251 CNS; A498 renal; NCI/ADR-RES ovarian.
Common to all, as to assay: DTP human tumour cell line panel, 48 h

For 14 compounds, TGI and GI50 results are on record in PubChem BioAssay (NCI).

Molecules are shown by their SMILES.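 Five compound concentrations were applied to cells in 96-well plates for 48 hours; endpoints were derived by simple linear interpolation of the resulting dose-response curve. GI50: concentration for 50% inhibition of growth. At the TGI there is no net growth.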

Turning to `Cc1ccccc1N=Cc1ccc(N(CCC#N)S(=O)(=O)c2ccccc2)cc1`, the concentration for total growth inhibition (TGI) in the test on SW-620 colon, with HCT-116 colon, with MALME-3M melanoma, with UACC-257 melanoma, with OVCAR-8 ovarian and in the test with HL-60(TB) leukemia was above 100 µM throughout. The TGI with EKVX NSCLC, in the test with U251 CNS and with A498 renal was above 100 µM in each case.

As to `[N-]=[N+]=Nc1ccccc1-[n+]1noc([O-])c1Br`, the concentration for total growth inhibition (TGI) in the test on SW-620 colon, in the test on HCT-116 colon, in the test with MALME-3M melanoma, in the test on UACC-257 melanoma, in the test on OVCAR-8 ovarian and in the test on HL-60(TB) leukemia was above 100 µM throughout. The TGI in the test on EKVX NSCLC and with U251 CNS was above 100 µM in each case.

As to `COc1ccc2nc3cc(Cl)ccc3c(NCCC(=O)OCC(O)C(O)C(O[C@H](C)C(=O)NC(C)C(=O)NC(CCC(N)=O)C(=O)OCc3ccccc3)C(C=O)NC(C)=O)c2c1` (stereo partly specified), the TGI in the test on SW-620 colon was 30.9 µM; with HCT-116 colon, 31.9 µM; in the test on MALME-3M melanoma, above 100 µM; in the test on UACC-257 melanoma, above 100 µM; in the test on OVCAR-8 ovarian, 30.5 µM; in the test on HL-60(TB) leukemia it was 56.3 µM. Also, the results for the TGI in the test on EKVX NSCLC, in the test on U251 CNS and with A498 renal were 36.9 µM, 35.7 µM and 37.7 µM, respectively.

For the compound `C[C@]12CCC3[C@@H](C[C@H]4OC(=O)[C@@]35CCC(=O)C=C45)C1CCC2=O` (stereo partly specified), the TGI in the test with SW-620 colon, with MALME-3M melanoma, in the test on UACC-257 melanoma, in the test on OVCAR-8 ovarian, with HL-60(TB) leukemia and with EKVX NSCLC was above 100 µM in each case. Further, the TGI with U251 CNS is above 100 µM.

As to `COC(=O)CCC(=O)CC(=O)C(=O)Nc1ccc(F)cc1`, the concentration for total growth inhibition (TGI) with SW-620 colon, in the test with HCT-116 colon, in the test on MALME-3M melanoma, with UACC-257 melanoma, in the test on OVCAR-8 ovarian and in the test on EKVX NSCLC was above 100 µM in each case. The TGI in the test on U251 CNS and with A498 renal was above 100 µM throughout.

With `COc1ccc(C(=O)C(c2ccc(OC)cc2)C2C(=O)Oc3ccccc32)cc1` (stereo unspecified), the GI50 in the test on SW-620 colon, in the test on HCT-116 colon, with MALME-3M melanoma, in the test with UACC-257 melanoma, in the test on OVCAR-8 ovarian and in the test on EKVX NSCLC was above 100 µM in each case. For the same compound, the GI50 in the test on A498 renal is above 100 µM. For the same compound, the TGI in the test with SW-620 colon, with HCT-116 colon, with MALME-3M melanoma, in the test with UACC-257 melanoma, in the test on OVCAR-8 ovarian and with EKVX NSCLC was above 100 µM each time. The compound also gave a TGI in the test with A498 renal above 100 µM.

As for `Cc1cc(C)nc(NS(=O)(=O)c2ccc(NC(=O)c3cccc4c(Nc5ccc(S(=O)(=O)Nc6nc(C)cc(C)n6)cc5)c5ccccc5nc34)cc2)n1`, the concentration for total growth inhibition (TGI) worked out at 65.3 µM with SW-620 colon; 26 µM with HCT-116 colon; 56.7 µM in the test with MALME-3M melanoma; 43.2 µM in the test on UACC-257 melanoma; 68.1 µM with OVCAR-8 ovarian; 48.9 µM in the test with HL-60(TB) leukemia. For the same compound, the results for the concentration for total growth inhibition (TGI) in the test on EKVX NSCLC, in the test with U251 CNS and in the test on A498 renal were 55.1 µM, 38.6 µM and 35.9 µM, respectively.

As to `COc1ccc(CN2C(=O)C(Cc3cc(OC)c(OC)c(C)c3OC)N(C(=O)OC(C)C)C(=O)/C2=C/c2cc(OC)c(OC)c(C)c2OC)cc1` (stereo unspecified), the concentration for total growth inhibition (TGI) in the test on SW-620 colon, in the test with HCT-116 colon, in the test on MALME-3M melanoma, in the test on UACC-257 melanoma, in the test with OVCAR-8 ovarian and in the test on HL-60(TB) leukemia was above 100 µM throughout. For the same compound, the TGI with EKVX NSCLC, in the test with U251 CNS and with A498 renal was above 100 µM each time.

On to `COC(=O)CSc1ccccc1`, for which the TGI with SW-620 colon was above 100 µM; in the test on HCT-116 colon, above 100 µM; in the test with MALME-3M melanoma, 59.8 µM; in the test on UACC-257 melanoma, above 100 µM; in the test on OVCAR-8 ovarian, above 100 µM; in the test with HL-60(TB) leukemia it was above 100 µM. The TGI with EKVX NSCLC, in the test on U251 CNS and in the test with A498 renal was above 100 µM throughout.

With `O=C(c1ccccn1)c1nnn2ccccc12`, the TGI in the test on SW-620 colon, in the test on HCT-116 colon, in the test on MALME-3M melanoma, in the test on UACC-257 melanoma, with OVCAR-8 ovarian and in the test with HL-60(TB) leukemia was above 100 µM each time. Further, the total growth inhibition concentration (TGI) in the test with EKVX NSCLC, in the test with U251 CNS and in the test on A498 renal was above 100 µM throughout.

Turning to `Cc1cc(Cl)ccc1NC(=O)/C(Cl)=C(/Cl)C(=O)O`, the concentration for total growth inhibition (TGI) with SW-620 colon is 48.9 µM; in the test with HCT-116 colon, 37.9 µM; in the test on NCI/ADR-RES ovarian, 74.2 µM; in the test on UACC-257 melanoma, 36.1 µM; with OVCAR-8 ovarian, 34.2 µM; with HL-60(TB) leukemia, above 100 µM. Besides, the total growth inhibition concentration (TGI) in the test on EKVX NSCLC worked out at 39.9 µM; in the test on U251 CNS, 38.3 µM.

Take `CN(C)c1ccccc1CC(c1c[nH]c2ccccc12)c1c[nH]c2ccccc12`: the concentration for total growth inhibition (TGI) in the test with SW-620 colon worked out at 19.2 µM; with HCT-116 colon, 23.3 µM; with MALME-3M melanoma, 31.4 µM; in the test on UACC-257 melanoma it was 31.8 µM; with OVCAR-8 ovarian it was 26.1 µM; in the test on HL-60(TB) leukemia, 25.3 µM. Further, the concentration for total growth inhibition (TGI) with EKVX NSCLC was 18.1 µM; in the test with U251 CNS, 24.7 µM; in the test on A498 renal, 31.1 µM.

`Nc1nc(=O)n(C2CC(O)C(O)C(CO)O2)cc1F` (stereo unspecified): the concentration for total growth inhibition (TGI) with SW-620 colon, in the test on HCT-116 colon, in the test with MALME-3M melanoma, in the test with UACC-257 melanoma, with OVCAR-8 ovarian and in the test with HL-60(TB) leukemia was above 100 µM in each case. In addition, the concentration for total growth inhibition (TGI) in the test with EKVX NSCLC, with U251 CNS and in the test with A498 renal was above 100 µM throughout.

For the compound `O=C(Nc1ccc(Cl)c(Cl)c1)C(=O)Nn1c(=S)[nH]c2ccccc2c1=O`, the TGI in the test with SW-620 colon, with HCT-116 colon, with MALME-3M melanoma, in the test on UACC-257 melanoma, in the test with OVCAR-8 ovarian and in the test with HL-60(TB) leukemia was above 100 µM in each case. Further, the total growth inhibition concentration (TGI) with EKVX NSCLC, with U251 CNS and with A498 renal was above 100 µM in each case.

Usually TGI stands for the concentration at which net growth stops. Lower therefore signals more potent growth arrest. The GI50 is the concentration that inhibits growth by half.
